Reference: US20190167676A1, “METHODS FOR IMPROVING RESISTANCE TO SKELETAL MUSCLE FATIGUE” (Cytokinetics, Inc., priority 2012, published 2019)

Experiments:
[1] = target: T1, myofibrils from cardiac muscle (Homo sapiens, UniProt P63316); conditions: cited from earlier work
T1 construct: from tissue; host or cells: cardiac muscle myofibrils

[2] = system: skinned fast skeletal muscle fibers from rabbit psoas muscle; conditions: cited from earlier work
[3] = system: patients with peripheral artery disease and claudication; assay: 6-Minute Walk Test, Phase II study; type: in vivo, human; conditions: single doses 375, 500, 750 mg; 4 hours after dosing
Description: This study was a double-blind, randomized, placebo-controlled, three-period cross-over, hypothesis generating Phase II study in patients with peripheral artery disease and claudication. […] Secondary objectives included (a) evaluation and characterization of the relationship, if any, between the doses and plasma concentrations of Compound A and its pharmacodynamic effects, and (b) evaluation of the safety and tolerability of Compound A administered as single doses.
Assessments include 1) Bilateral Heel Raise Test (as described below) using electrogoniometry at 3 and 6 hours after dosing, and 2) 6-Minute Walk Test at 4 hours after dosing. Results were analyzed using a repeated-measures ANCOVA with treatment, sequence, period, baseline, and patient in the model. In the event of model assumption violations, non-parametric methods were utilized

SMILES: C#Cc1cnc2nc(O)n(C(CC)CC)c2n1 [Compound A, 6-ethynyl-1-(pentan-3-yl)-1H-imidazo[4,5-b]pyrazin-2-ol]
- effect in myofibrils [1]: little or no effect
- force-calcium relationship [2]: leftward-shift of the force-calcium relationship
- distance traversed during 6-Minute Walk Test [3]: dose and concentration dependent decrease
